The values below come from patent US20080057003A1, “Powder inhaler formulations” (priority 2001, published 2008).

This data set is described as follows: Triboelectrification in a cyclone separator (specific charge, mass transport, adhesion). To be noted: for specific charge: untreated micronized drug, stainless steel cyclone, FIG. 1 / FIG. 3. It counts as physicochemical. The source says: In the processing of micronized or microfine active substances for DPI, it is common to subject the powder to a sieving process in order to remove large agglomerates prior to mixing with the carrier particles used in the DPI formulation. […] The experimental method for electrostatic charge determinations that was applied is outlined in more detail below.
Electrostatic charge of powder samples was investigated using a cyclone apparatus linked to a Faraday well and force compensation load cell to measure charge and mass simultaneously. 1 g samples of powder were transported through the apparatus using dry compressed air (rh<10%) at 8 m s^−1 for triboelectrification against a stainless steel surface.
The charge Q (nC) and mass M (g) values were used to calculate the specific charge Q/M (nC g^−1) at the completion of each experimental run. The results are mean values with coefficient of variation values for 5 replicates. The mass of material entering the Faraday well was used to quantify the mass transport through the apparatus and this was used to assess the flow and adhesion characteristics of the powder. In addition, the amount of material adhered to the cyclone wall was estimated visually and rated on a scale from 0 (no adhesion) to 3 (extensive adhesion).
Approximately 10 g of drug powder samples were placed in a 60M (250 μm) sieve and agitated using a sieve shaker (Glen Creston, 47-300) with an oscillation amplitude regulator at setting 20 for 20 minutes. Sieved powder samples were stored in glass jars and then kept in a desiccator for a week prior to charge investigations in the cyclone.

Setting [1] is: sieved samples, tiotropium treated with sorbitan derivative at 600 mg l^−1, or untreated, cyclone.

For the molecule `C[N+]1(C)[C@@H]2C[C@@H](OC(=O)C(O)(c3cccs3)c3cccs3)C[C@H]1[C@@H]1O[C@@H]12` [tiotropium, Tiotropium], under setting [1], the “Mean charge (cv %)” value was “+201 (3.2) nC g^−1”. Moreover, the “Mean mass transfer (cv %)” value under setting [1] is given as 2.5 (8.0) %. The specific charge entry is, setting by setting: (sieved) “+201 nC g^−1”; (unsieved) “+52 nC g^−1”.

`CC(Cc1ccc(O)cc1)NCC(O)c1cc(O)cc(O)c1` (stereo not drawn) [fenoterol, Fenoterol]: the specific charge is, setting by setting: (sieved) −92 nC g^−1; (unsieved) −40 nC g^−1.
